Source: patent publication US11197914B2, “GLP-1R/GCGR dual target agonist polypeptide for treatment of fatty liver diseases, hyperlipemia and arteriosclerosis” (Shenzhen Turier Biotech Co., Ltd., priority 2016, dated 2021)
*1 amine or outer side, *2 acyl side, *3 side chain or, on linkers, in order; H or OH if unused. Primed or numbered codes have the meaning given here. Where no end group is shown, it is not given here. Side-chain parts run from the residue outwards. [ ]: non-standard residue; d: D form. The star is where a group is joined. C18 diacid = O=C(O)CCCCCCCCCCCCCCCCC(=O)*; γGlu = O=C(O)[C@H](CCC(=O)[*:2])N[*:1]; Stearoyl = CCCCCCCCCCCCCCCCCC(=O)*; Palmitoyl = CCCCCCCCCCCCCCCC(=O)*; PEG2′ = not defined here; Aib = CC(C)(N)C(=O)O

Tested on: Hepatic stellate cell strain LX-2
Test: In vitro inhibition of hepatic fibrosis: expression of LX-2 cell activation marker α-SMA (Western Blot, α-SMA/β-actin)
Type: cell-based, human
Settings: LX-2 cells; for Relative expression of α-SMA (α-SMA/β-actin, %): 48 hours, negative control = 100%
Experimental: Hepatic stellate cell strain LX-2 was selected to study and observe the effect of different doses of test substances on the expression of LX-2 cell activation marker […]. Hepatic stellate cell LX-2 was laid on 35 mm cell culture plate, cultured with DMEM (high glucose)+10% FBS+1% double-antibody culture medium (Thermo Fisher), placed overnight when the cells grew to 70% convergence at 37° C. and under the condition of 5% CO2, and treated with the above compounds 1-37 (dissolved in PBS) for 48 hours the next day morning to extract cell protein, carry out Western Blot, and take β-actin as internal reference and analyze the expression quantities of α-SMA and β-actin by a gray level of Image J 1.50i. PBS with the same volume as that in experimental group was added in negative control. […] The integrating gray level of α-SMA/β-actin in the negative control group was 100% to analyze the in vitro inhibition activity of hepatic fibrosis of tested polypeptide.

Substance | Relative expression of α-SMA (α-SMA/β-actin, %) (1 μM) [%] | other results
His-(D-Ser)-Gln-Gly-Thr-Phe-Thr-Ser-Asp-Lys(PEG2-PEG2-CO(CH2)14CH3)-Ser-Lys-Tyr-Leu-Asp-Aib-Arg-Arg-Ala-Gln-Asp-Phe-Val-Gln-Trp-Leu-Met-Asn-Thr-Gly-Gly-Pro-Ser-Ser-Gly-Ala-Pro-Pro-Pro-Ser-NH2 (H[dS]QGTFTSDK([PEG2′-PEG2′-Palmitoyl])SKYLD[Aib]RRAQDFVQWLMNTGGPSSGAPPPS-NH2) [Compound 31] | 86.89 | –
His-(D-Ser)-Gln-Gly-Thr-Phe-Thr-Ser-Asp-Lys(PEG2-PEG2-CO(CH2)16CH3)-Ser-Lys-Tyr-Leu-Asp-Aib-Arg-Arg-Ala-Gln-Asp-Phe-Val-Gln-Trp-Leu-Met-Asn-Thr-Gly-Gly-Pro-Ser-Ser-Gly-Ala-Pro-Pro-Pro-Ser-NH2 (H[dS]QGTFTSDK([PEG2′-PEG2′-Stearoyl])SKYLD[Aib]RRAQDFVQWLMNTGGPSSGAPPPS-NH2) [Compound 32] | 97.14 | –
His-(D-Ser)-Gln-Gly-Thr-Phe-Thr-Ser-Asp-Lys(PEG2-PEG2-CO(CH2)16CO2H)-Soer-Lys-Tyr-Leu-Asp-Aib-Arg-Arg-Ala-Gln-Asp-Phe-Val-Gln-Trp-Leu-Met-Asn-Thr-Gly-Gly-Pro-Ser-Ser-Gly-Ala-Pro-Pro-Pro-Ser-NH2 (H[dS]QGTFTSDK([PEG2′-PEG2′-C18 diacid])SKYLD[Aib]RRAQDFVQWLMNTGGPSSGAPPPS-NH2) [Compound 30] | 85.53 | –
His-(D-Ser)-Gln-Gly-Thr-Phe-Thr-Ser-Asp-Lys(PEG2-PEG2-γGlu-CO(CH2)14CH3)-Ser-Lys-Tyr-Leu-Asp-Aib-Arg-Arg-Ala-Gln-Asp-Phe-Val-Gln-Trp-Leu-Met-Asn-Thr-Gly-Gly-Pro-Ser-Ser-Gly-Ala-Pro-Pro-Pro-Ser-NH2 (H[dS]QGTFTSDK([PEG2′-PEG2′-γGlu-Palmitoyl])SKYLD[Aib]RRAQDFVQWLMNTGGPSSGAPPPS-NH2) [Compound 4] | 88.50 | –
His-(D-Ser)-Gln-Gly-Thr-Phe-Thr-Ser-Asp-Lys(PEG2-PEG2-γGlu-CO(CH2)16CO2H)-Ser-Lys-Tyr-Leu-Asp-Aib-Arg-Arg-Ala-Gln-Asp-Phe-Val-Gln-Trp-Leu-Met-Asn-Thr-Gly-Gly-Pro-Ser-Ser-Gly-Ala-Pro-Pro-Pro-Ser-NH2 (H[dS]QGTFTSDK([PEG2′-PEG2′-γGlu-C18 diacid])SKYLD[Aib]RRAQDFVQWLMNTGGPSSGAPPPS-NH2) [Compound 5] | 67.94 | Inhibition of LX-2 cell activation marker α-SMA (in words, from Table 2): obviously reduce; Effect on expression of α-SMA (in words) (0.1 μM, 1 μM and 5 μM): reduce the expression of α-SMA under all concentrations; Relative expression of α-SMA (α-SMA/β-actin, %) (0.1 μM): 66.04%; Relative expression of α-SMA (α-SMA/β-actin, %) (5 μM): 33.45%
His-(D-Ser)-Gln-Gly-Thr-Phe-Thr-Ser-Asp-Tyr-Ser-Lys(PEG2-PEG2-CO(CH2)14CH3)-Lys-Leu-Asp-Aib-Arg-Arg-Ala-Gln-Asp-Phe-Val-Gln-Trp-Leu-Met-Asn-Thr-Gly-Gly-Pro-Ser-Ser-Gly-Ala-Pro-Pro-Pro-Ser-NH2 (H[dS]QGTFTSDYSK([PEG2′-PEG2′-Palmitoyl])KLD[Aib]RRAQDFVQWLMNTGGPSSGAPPPS-NH2) [Compound 9] | 75.86 | –
His-(D-Ser)-Gln-Gly-Thr-Phe-Thr-Ser-Asp-Tyr-Ser-Lys(PEG2-PEG2-CO(CH2)16CH3)-Lys-Leu-Asp-Aib-Arg-Arg-Ala-Gln-Asp-Phe-Val-Gln-Trp-Leu-Met-Asn-Thr-Gly-Gly-Pro-Ser-Ser-Gly-Ala-Pro-Pro-Pro-Ser-NH2 (H[dS]QGTFTSDYSK([PEG2′-PEG2′-Stearoyl])KLD[Aib]RRAQDFVQWLMNTGGPSSGAPPPS-NH2) [Compound 3] | 82.25 | –
His-(D-Ser)-Gln-Gly-Thr-Phe-Thr-Ser-Asp-Tyr-Ser-Lys(PEG2-PEG2-γGlu-CO(CH2)14CH3)-Lys-Leu-Asp-Aib-Arg-Arg-Ala-Gln-Asp-Phe-Val-Gln-Trp-Leu-Met-Asn-Thr-Gly-Gly-Pro-Ser-Ser-Gly-Ala-Pro-Pro-Pro-Ser-NH2 (H[dS]QGTFTSDYSK([PEG2′-PEG2′-γGlu-Palmitoyl])KLD[Aib]RRAQDFVQWLMNTGGPSSGAPPPS-NH2) [Compound 1] | 75.26 | –
